{"source": "patent US10045940B2", "about": "“Composition comprising an antibiotic and a corticosteroid” (Intervet Inc., priority 2008, dated 2018)", "assay": "Storage stability of the formulation of Table 1 (prior formulation without fatty acid)", "assay_type": "physicochemical", "settings": "in the formulation of Table 1", "description": "Applicants have observed an increase in at least one mometasone degradation product over time when the above formulation is stored at room temperature. […] The formation of the degradation product generally can be minimized by storing the formulation at colder temperatures (e.g., 5° C.). There is, however, a need for a formulation that can remain stable at greater temperatures (e.g., room temperature). This invention provides such a formulation.", "data": [{"molecule": "C[C@@H]1CN(c2c(F)c(F)c3c(=O)c(C(=O)O)cn(C4CC4)c3c2F)C[C@H](C)N1", "note": "[orbifloxacin]", "values": [{"measurement": "Effect of the orbifloxacin in the formulation on formation of the mometasone degradation product", "result": "accelerates the formation of the degradation product"}]}]}
